# Assay results taken from patent US10149830B2, “Pharmaceutical agents and methods relating thereto” (Cushing Academy, priority 2016, dated 2018).
# How the values were obtained:
# [1] = test system: HL-60 (promyelocytic leukemia); assay: MTT reduction cytotoxicity assay, HL-60; format: cell-based; conditions: Homo sapiens, HL-60, MTT, 72 h incubation
# Experimental: (§1) The human tumor cell lines used were HL-60 (promyelocytic leukemia), MCF-7 (breast adenocarcinoma) and NCI-H292 (lung carcinoma). The cells were obtained from Rio de Janeiro Cell Bank (RJ, Brazil). Cancer cells were maintained in RPMI 1640 medium or DMEN supplemented with 10% fetal bovine serum, 2 mM glutamine, 100 U/mL penicillin, 100 μg/mL streptomycin at 37° C. with 5% CO2. Cytotoxicity of (6R)-6-[(2Z)-pent-2-enyl]-5,6-dihydro-2H-pyran-2-one [(R)-(−)-Tuberolactone] against the three tumor cell lines was assessed using the 3-(4,5-dimethyl-2-thiazolyl)-2,5-diphenyl-2H tetrazolium bromide (MTT) (Sigma Aldrich Co., St. Louis, Mo., USA) reduction assay. Tumor cells were plated in 96-well plates (10^5 cells/mL for adherent cells or 3×10^5 cells/mL for Leukemia). (6R)-6-[(2Z)-pent-2-enyl]-5,6-dihydro-2H-pyran-2-one [(R)-(−)-Tuberolactone] in DMSO (0.3-25 μg/mL) were added to each well and incubated for 72 h. Control groups received the same amount of DMSO. After 69 h of treatment, 25 μL of MTT (5 mg/mL) was added. Three hours later, the MTT formazan product was dissolved in 100 μL of DMSO. Absorbance was measured at 595 nm in plate spectrophotometer (Varioskan Flash, Thermo Scientific). […] IC50 values and their 95% confidence intervals for two different experiments were obtained by non linear regression using Graphpad Prism version 5.0 for Windows (GraphPad Software, San Diego, Calif., USA).
# [2] = test system: NCI-H292 (lung carcinoma); assay: MTT reduction cytotoxicity assay, NCI-H292; format: cell-based; conditions: Homo sapiens, 72 h incubation
# Experimental: as §1
# E. aerogenes = assay: Paper disk diffusion antibacterial test, E. aerogenes; format: cell-based, Enterobacter aerogenes; conditions: gram-(−) strain, 24 h at 28° C.
# Experimental: (§2) 235 mg alkaloids were extracted from 750 g leaves from the plant, Gaultheria procumbens (also called American wintergreen, teaberry, or boxberry). Fractionation of the crude extract was guided by antimicrobial activity against several gram-(+) and gram-(−) strains: Enterobacter aerogenes (Gram-negative rods), Bacillus cereus (Gram-positive rods), and Sarcina lutea (Gram-positive […]), using the paper disk diffusion method (Barry, A. L.; Thornsbery, C. Identification for Clinical Microbiology, 4th ed.; Washington, D.C., 1985; p 978) supplied within the Science Kit & Boreal Laboratories Antibiotic Effects Kit. The SK Antibiotics Effect Kit uses “Easygel” instead of agar dishes. Each paper disk (6 mm) containing approximately 100 μg of the extract was placed directly onto an Easygel plate, which had been freshly inoculated with either a gram-(+) or (−) strain. In addition, a standard antibiotic disk (30 μg of either penicillin, tetracycline, or chloramphenicol supplied within Science Kit & Boreal Laboratories Antibiotic Effects Kit) as well as a blank disk (with only solvent) were placed on the freshly inoculated Easygel plate. […] 45 mg (6R)-6-[(2Z)-pent-2-enyl]-5,6-dihydro-2H-pyran-2-one [(R)-(−)-Tuberolactone] were isolated (MW. 166.0989 g/mol). […]
# S. lutea = assay: Paper disk diffusion antibacterial test, S. lutea; format: cell-based, Sarcina lutea; conditions: gram-(+) strain, 24 h at 28° C.
# Experimental: as §2
# B. cereus = assay: Paper disk diffusion antibacterial test, B. cereus; format: cell-based, Bacillus cereus; conditions: gram-(+) strain, 24 h at 28° C.
# Experimental: as §2
# [3] = test system: MCF-7 (breast adenocarcinoma); assay: MTT reduction cytotoxicity assay, MCF-7; format: cell-based; conditions: Homo sapiens, MCF7, MCF-7, MTT, 72 h incubation
# Experimental: as §1
Structure (SMILES),IC50 ([1]; two experiments) [µg/mL],IC50 ([2]; two experiments) [µg/mL],IC50 ([2]; value in parentheses) [µM],IC50 ([1]; value in parentheses) [µM],antibacterial activity against E. aerogenes (E. aerogenes),antibacterial activity against S. lutea (S. lutea),antibacterial activity against B. cereus (B. cereus),IC50 ([3]; two experiments) [µg/mL],IC50 ([3]; value in parentheses) [µM]
"COc1cccc2c1C(=O)c1c(O)c3c(c(O)c1C2=O)C[C@@](O)(C(=O)CO)C[C@@H]3O[C@H]1C[C@H](N)[C@H](O)[C@H](C)O1 [Doxorubicin, reference compound]",0.02,0.2,0.36,–,–,–,–,–,–
"CC/C=C\C[C@@H]1CC=CC(=O)O1 [Tuberolactone, (6R)-6-[(2Z)-pent-2-enyl]-5,6-dihydro-2H-pyran-2-one]",4.4,5.9,35.5,26,confirmed,confirmed,confirmed,6.4,38.5
